In this assay the test system is HCV replicon I389luc-ubi-neo/NS3-3′/ET in ET (Huh-lucubineo-ET) cells; screening for HCV RNA dependent RNA polymerase. The experiment in a line: Replicon Assay (luciferase, ET cell line Huh-lucubineo-ET). The class given is cell-based. As to conditions: Hepatitis C virus; inhibition of replication relative to no compound control; test concentration of 10 μM according to the fitted equation; luciferase 48-72 hours. The procedure:
A cell line, ET (Huh-lucubineo-ET) was used for screening of compounds of the present invention for HCV RNA dependent RNA polymerase. The ET cell line was stably transfected with RNA transcripts harboring a I389luc-ubi-neo/NS3-3′/ET; replicon with firefly luciferase-ubiquitin-neomycin phosphotransferase fusion protein and EMCV-IRES driven NS3-5B polyprotein containing the cell culture adaptive mutations (E1202G; T12801; K1846T) (Krieger at al, 2001 and unpublished). The ET cells were grown in DMEM, supplemented with 10% fetal calf serum, 2 mM Glutamine, Penicillin (100 IU/mL)/Streptomycin (100 μg/mL), 1× nonessential amino acids, and 250 μg/mL G418 (“Geneticin”). They were all available through Life Technologies (Bethesda, Md.). The cells were plated at 0.5-1.0×10^4 cells/well in the 96 well plates and incubated for 24 hrs before adding nucleoside analogs. […] Luciferase activity were measured 48-72 hours later by adding a lysis buffer and the substrate (Catalog number Glo-lysis buffer E2661 and Bright-Glo luciferase system E2620 Promega, Madison, Wis.). Cells should not be too confluent during the assay. Percent inhibition of replication was plotted relative to no compound control. Under the same condition, cytotoxicity of the compounds was determined using cell proliferation reagent, WST-1(Roche, Germany). The compounds showing antiviral activities, but no significant cytotoxicities were chosen to determine IC50 and TC50. For these determinations, 10 concentrations of each compound were used. Concentrations for test compounds typically span a range of 500 fold. IC50 and TC50 values were calculated by fitting % inhibition at each concentration (I) to the following equation: % inhibition=100%/[1+10^(log IC50−log (I))*b] where b is Hill's coefficient.
What is called inhibition is the relative decrease from the control value, in per cent. `O=C(Nc1nc(-c2ccc(C3CCCCC3)cc2)cs1)[C@@H]1CCCN1C(=O)OCc1ccccc1` [Compound 5024, 2-[4-(4-Cyclohexyl-phenyl)-thiazol-2-ylcarbamoyl]-pyrrolidine-1-carboxylic acid benzyl ester] had an inhibition at 10 µM of 11%. With `Cc1ccc(Cc2cnc(NC(=O)[C@@H]3CCCN3C(=O)OCc3ccccc3)s2)cc1Cl` [Compound 5025, 2-[5-(3-Chloro-4-methyl-benzyl)-thiazol-2-ylcarbamoyl]-pyrrolidine-1-carboxylic acid benzyl ester] the figure was 2.86%; with `O=C(Nc1cccc(-c2csc(NC(=O)C3CCCN3C(=O)OCc3ccccc3)n2)c1)C1CCCC1` (centres unmarked) [Compound 5026, 2-{4-[3-(Cyclopentanecarbonyl-amino)-phenyl]-thiazol-2-ylcarbamoyl}-pyrrolidine-1-carboxylic acid benzyl ester], 100%. To `O=C(Nc1nc(-c2ccc(NS(=O)(=O)c3ccccc3)cc2)cs1)C1CCCN1C(=O)OCc1ccccc1` (centres unmarked) [Compound 5027, 2-[4-(4-Benzenesulfonylamino-phenyl)-thiazol-2-ylcarbamoyl]-pyrrolidine-1-carboxylic acid benzyl ester] belongs 99.7%; to `O=C(Nc1nc(C2(c3ccccc3)CCCC2)cs1)[C@@H]1CCCN1C(=O)OCc1ccccc1` [Compound 5028, 2-[4-(1-Phenyl-cyclopentyl)-thiazol-2-ylcarbamoyl]-pyrrolidine-1-carboxylic acid benzyl ester], 98.9%; to `O=C(Nc1ncc(Cc2cccc(Cl)c2)s1)[C@@H]1CCCN1C(=O)OCc1ccccc1` [Compound 5029, 2-[5-(3-Chloro-benzyl)-thiazol-2-ylcarbamoyl]-pyrrolidine-1-carboxylic acid benzyl ester], 0.52%. With `O=C(Nc1ncc(Cc2ccc(Cl)cc2Cl)s1)[C@@H]1CCCN1C(=O)OCc1ccccc1` [Compound 5031, 2-[5-(2,4-Dichloro-benzyl)-thiazol-2-ylcarbamoyl]-pyrrolidine-1-carboxylic acid benzyl ester] the figure was 2.85%. `Cc1sc2nc(SCc3csc(NC(=O)[C@@H]4CCCN4C(=O)OCc4ccccc4)n3)n(C)c(=O)c2c1C` [Compound 5032, 2-[4-(3,5,6-Trimethyl-4-oxo-3,4-dihydro-thieno[2,3-d]pyrimidin-2-ylsulfanylmethyl)-thiazol-2-ylcarbamoyl]-pyrrolidine-1-carboxylic acid benzyl ester] came in with an inhibition at 10 µM of 38.6%. With `Cc1ccc(S(=O)(=O)Cc2csc(NC(=O)[C@@H]3CCCN3C(=O)OCc3ccccc3)n2)cc1` [Compound 5033, 2-[4-(Toluene-4-sulfonylmethyl)-thiazol-2-ylcarbamoyl]-pyrrolidine-1-carboxylic acid benzyl ester] the figure was 2.51%; with `O=C(Nc1nc(-c2ccc(Cl)c(Cl)c2)cs1)[C@@H]1CCCN1C(=O)OCc1ccccc1` [Compound 5034, 2-[4-(3,4-Dichloro-phenyl)-thiazol-2-ylcarbamoyl]-pyrrolidine-1-carboxylic acid benzyl ester], 100%; with `O=C(Nc1nc2cc3ccccc3cc2s1)[C@@H]1CCCN1C(=O)OCc1ccccc1` [Compound 5035, 2-(Naphtho[2,3-d]thiazol-2-ylcarbamoyl)-pyrrolidine-1-carboxylic acid benzyl ester], 100%. With `O=C(Nc1ccc(-c2csc(NC(=O)[C@@H]3CCCN3C(=O)OCc3ccccc3)n2)cc1)c1ccc(Cl)cc1` [Compound 5036, 2-{4-[4-(4-Chloro-benzoylamino)-phenyl]-thiazol-2-ylcarbamoyl}-pyrrolidine-1-carboxylic acid benzyl ester] the figure was 100%. To `O=C(Nc1ccc(-c2csc(NC(=O)C3CCCN3C(=O)OCc3ccccc3)n2)cc1)c1ccccc1` (centres unmarked) [Compound 5037, 2-[4-(4-Benzoylamino-phenyl)-thiazol-2-ylcarbamoyl]-pyrrolidine-1-carboxylic acid benzyl ester] belongs 100%; to `O=C(Nc1cccc(-c2csc(NC(=O)[C@@H]3CCCN3C(=O)OCc3ccccc3)n2)c1)c1ccc(Cl)cc1` [Compound 5038, 2-{4-[3-(4-Chloro-benzoylamino)-phenyl]-thiazol-2-ylcarbamoyl}-pyrrolidine-1-carboxylic acid benzyl ester], 100%. `O=C(Nc1cccc(-c2csc(NC(=O)C3CCCN3C(=O)OCc3ccccc3)n2)c1)C1CC1` (centres unmarked) [Compound 5039, 2-{4-[3-(Cyclopropanecarbonyl-amino)-phenyl]-thiazol-2-ylcarbamoyl}-pyrrolidine-1-carboxylic acid benzyl ester] registered an inhibition at 10 µM of 99.6%. To `Cc1ccc(Cc2cnc(NC(=O)[C@@H]3CCCN3C(=O)OCc3ccccc3)s2)cc1` [Compound 5040, 2-[5-(4-Methyl-benzyl)-thiazol-2-ylcarbamoyl]-pyrrolidine-1-carboxylic acid benzyl ester] belongs 22.5%.

Molecule `O=C(Nc1nc(-c2ccc([N+](=O)[O-])cc2)cs1)[C@@H]1CCCN1C(=O)OCc1ccccc1` [Compound 5041, 2-[4-(4-Nitro-phenyl)-thiazol-2-ylcarbamoyl]-pyrrolidine-1-carboxylic acid benzyl ester] had an inhibition at 10 µM of 76%.

For `Cc1ccc(C)c(-c2cnc(NC(=O)[C@@H]3CCCN3C(=O)OCc3ccccc3)s2)c1` [Compound 5042, 2-[5-(2,5-Dimethyl-phenyl)-thiazol-2-ylcarbamoyl]-pyrrolidine-1-carboxylic acid benzyl ester], the inhibition at 10 µM stood at 90.3%. With `COc1ccc2cc(-c3csc(NC(=O)[C@@H]4CCCN4C(=O)OCc4ccccc4)n3)c(=O)oc2c1` [Compound 5043, 2-[4-(7-Methoxy-2-oxo-2H-chromen-3-yl)-thiazol-2-ylcarbamoyl]-pyrrolidine-1-carboxylic acid benzyl ester] the figure was 3.61%. Turning to `O=C1CC(c2csc(NC(=O)[C@@H]3CCCN3C(=O)OCc3ccccc3)n2)C2(CCCCC2)O1` (some centres unmarked) [Compound 5044, 2-[4-(2-Oxo-1-oxa-spiro[4.5]dec-4-yl)-thiazol-2-ylcarbamoyl]-pyrrolidine-1-carboxylic acid benzyl ester], at 10 µM the inhibition was 16.9%. With `O=C(Nc1nc(COc2ccc(Cl)cc2)cs1)[C@@H]1CCCN1C(=O)OCc1ccccc1` [Compound 5045, 2-[4-(4-Chloro-phenoxymethyl)-thiazol-2-ylcarbamoyl]-pyrrolidine-1-carboxylic acid benzyl ester] the figure was 6.85%; with `O=C(Nc1ncc(Cc2cccc([N+](=O)[O-])c2)s1)[C@@H]1CCCN1C(=O)OCc1ccccc1` [Compound 5047, 2-[5-(3-Nitrobenzyl)-thiazol-2-ylcarbamoyl]-pyrrolidine-1-carboxylic acid benzyl ester], 37.7%. To `CC(=O)Nc1ccc(-c2csc(NC(=O)[C@@H]3CCCN3C(=O)OCc3ccccc3)n2)cc1` [Compound 5048, 2-[4-(4-Acetylamino-phenyl)-thiazol-2-ylcarbamoyl]-pyrrolidine-1-carboxylic acid benzyl ester] belongs 100%. To `CNc1ccc(-c2csc(NC(=O)C3CCCN3C(=O)OCc3ccccc3)n2)cc1` (centres unmarked) [Compound 5049, 2-[4-(4-Methylamino-phenyl)-thiazol-2-ylcarbamoyl]-pyrrolidine-1-carboxylic acid benzyl ester] belongs 95.6%; to `Nc1ccc(-c2csc(NC(=O)C3CCCN3C(=O)OCc3ccccc3)n2)cc1` (centres unmarked) [Compound 5050, 2-[4-(4-Amino-phenyl)-thiazol-2-ylcarbamoyl]-pyrrolidine-1-carboxylic acid benzyl ester], 99.8%; to `O=C(Nc1nc(C2CCOCC2)cs1)[C@@H]1CCCN1C(=O)OCc1ccccc1` [Compound 5051, 2-[4-(Tetrahydro-pyran-4-yl)-thiazol-2-ylcarbamoyl]-pyrrolidine-1-carboxylic acid benzyl ester], 3.42%. `O=C(Nc1ncc(Cc2ccccc2Cl)s1)[C@@H]1CCCN1C(=O)OCc1ccccc1` [Compound 5052, 2-[5-(2-Chloro-benzyl)-thiazol-2-ylcarbamoyl]-pyrrolidine-1-carboxylic acid benzyl ester] gave an inhibition at 10 µM of 1.2%. With `CC(=O)c1ccc(Cc2cnc(NC(=O)[C@@H]3CCCN3C(=O)OCc3ccccc3)s2)cc1` [Compound 5053, 2-[5-(4-Acetyl-benzyl)-thiazol-2-ylcarbamoyl]-pyrrolidine-1-carboxylic acid benzyl ester] the figure was 4.55%; with `COc1ccc(-c2csc(NC(=O)[C@@H]3CCCN3C(=O)OCc3ccccc3)n2)cc1OC` [Compound 5054, 2-[4-(3,4-Dimethoxy-phenyl)-thiazol-2-ylcarbamoyl]-pyrrolidine-1-carboxylic acid benzyl ester], 99.3%.

(Values after patent US7595398B2, “N-(5-membered aromatic ring)-amido anti-viral compounds” (SmithKline Beecham Corporation, priority 2005, dated 2009).)
